Experimental data from PubChem BioAssay (NCI).
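48-hour exposure; five concentrations; linearly interpolated endpoints. GI50 marks 50% less growth. TGI marks complete inhibition of growth.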

Experiments:
Test in all cases: NCI tumour cell line growth inhibition, 48 h
BT-549 breast = tested on: BT-549 breast
SF-295 CNS = tested on: SF-295 CNS
LOX IMVI melanoma = tested on: LOX IMVI melanoma
U251 CNS = tested on: U251 CNS
MOLT-4 leukemia = tested on: MOLT-4 leukemia
KM12 colon = tested on: KM12 colon
SR leukemia = tested on: SR leukemia
SNB-19 CNS = tested on: SNB-19 CNS
HCT-15 colon = tested on: HCT-15 colon
HS 578T breast = tested on: HS 578T breast

Compound | GI50 (BT-549 breast) [nM] | TGI (BT-549 breast) [µM] | GI50 (SF-295 CNS) [nM] | GI50 (LOX IMVI melanoma) [nM] | TGI (LOX IMVI melanoma) [µM] | GI50 (U251 CNS) [nM] | TGI (U251 CNS) [µM] | GI50 (MOLT-4 leukemia) [nM] | TGI (MOLT-4 leukemia) [µM] | GI50 (KM12 colon) [µM] | GI50 (SR leukemia) [nM] | GI50 (SNB-19 CNS) [µM] | TGI (SNB-19 CNS) [µM] | GI50 (HCT-15 colon) [nM] | TGI (HCT-15 colon) [µM] | GI50 (HS 578T breast) [nM] | TGI (HS 578T breast) [µM] | TGI (SF-295 CNS) [µM] | TGI (KM12 colon) [µM] | TGI (SR leukemia) [µM]
CCC1=C[C@@H]2CN(C1)Cc1c([nH]c3ccccc13)[C@@](C(=O)OC)(c1cc3c(cc1OC)N(C=O)[C@H]1[C@@](O)(C(=O)OC)[C@H](OC(C)=O)[C@]4(CC)[C@@H]5C[C@@H]5CN5CC[C@]31[C@@H]54)C2 | 1.66 | 0.211 | 1.56 | < 0.625 | > 6.25 | 0.676 | > 6.25 | 0.789 | > 6.25 | < 0.000625 | < 0.625 | 0.00127 | > 6.25 | 107 | > 6.25 | 1.81 | > 6.25 |  |  | 
COc1ccc(C2=NN(C(=O)COc3ccc(Cl)cc3)C(O)(c3cc(F)c(Cl)cc3Cl)C2)cc1OC (stereo not drawn) | 2750 | 10.7 |  | 1400 | 2.78 | 5690 | 16.6 | 1470 | > 20.6 | 4.88 | 1970 | 11.7 | 25.8 | 1390 | 3 | 4500 | 13.4 | 11.8 | 16.2 | 6.89
COc1cc(NC(=O)c2cc(OC)c3ccn(C)c3c2)cc2c1C[C@]1(C)CC[C@@H](O)C(C)(C)[C@H]1O2 | 2980 | > 100 | 1010 | 4080 | 19 | 4050 | > 100 | 2980 | 15 | 9.92 | 2960 | 25.3 | > 100 | 5130 | > 100 | 2330 | 9.34 | 2.95 | > 100 | > 100
Nc1ccc(C(=O)c2ccc(N)c(Br)c2)cc1Br | 1840 | 18.8 | 228 | 848 | > 65.7 | 419 | 18.3 | 654 | 59.4 | 0.409 | 253 | 0.637 | > 100 | 466 | > 100 | 345 |  | 0.664 | 12.8 | 1.35
CCCCCNC(=O)[C@@H]1CCCN2C(=O)CC[C@H](NC(=O)[C@H](Cc3ccc(OP(=O)(O)O)cc3)NC(C)=O)C(=O)N12 | > 25000 | > 25 | > 25000 | > 25000 | > 25 | > 25000 | > 25 | > 25000 | > 25 | > 25 | > 25000 | > 25 | > 25 | > 25000 | > 25 | > 25000 | > 25 | > 25 | > 25 | > 25
OCC(O)C(O)C(O)C1SC(c2ccccc2)=NN1c1ccccc1 (stereo not drawn) |  | > 100 |  |  | > 100 |  | > 100 |  | > 100 |  |  |  | > 89.8 |  | > 100 |  | > 100 | > 100 | > 100 | > 100
CC(C)(C)C(=O)Nc1ccccc1I(=O)=O | > 100000 | > 100 | > 100000 | > 100000 | > 100 | > 100000 | > 100 | > 100000 | > 100 | > 100 | 26000 | > 100 | > 100 | > 100000 | > 100 | > 100000 | > 100 | > 100 | > 100 | > 100
COc1ccc2c(c1)nc(N)c1c3cc(OC)c(OC)cc3cn21 | 827 | 15.2 |  |  | 18.4 | 118 | 14.6 | 281 | 12.6 | 0.014 | < 10 | 0.0967 | 19.1 | < 10 | 13.3 | 159 | 32.3 | 16.2 | 12.7 | 5.04
O=C(NC1CC1)c1ccc(-c2nc3ccc4[nH]ncc4c3c3c2CCCC3)cc1 | 1510 | 7.69 | 2240 | 1950 | 11.7 | 2190 | 13.7 | 1750 | 20.1 | 1.51 | 987 | 4.47 | > 50 | 1580 | 13.9 | 1060 | 3.37 | 13.6 | 9.65 | 6.02
NCCCC(=O)Nc1ccncc1 | > 100000 | > 100 | > 100000 | > 100000 | > 100 | > 100000 | > 100 | > 100000 | > 100 | > 100 | > 100000 | > 100 | > 100 | > 100000 | > 100 | > 100000 | > 100 | > 100 | > 100 | > 100
